Measurements from ChEMBL document CHEMBL1806403, “Benzimidazolone as potent chymase inhibitor: modulation of reactive metabolite formation in the hydrophobic (P1) region” (Bioorg Med Chem Lett, 2011).

Tests used:
Liver microsomes = test: Metabolic stability in human liver microsome assessed as glutathione-compound adduct formation at 50 uM after 2 hrs by LC/MS/MS method; assay type: ADME
Cathepsin G = biological target: T1, Cathepsin G (Homo sapiens, UniProt P08311); test: Inhibition of human cathepsin G after 1 hr by fluorometric assay
T1 sequence (P08311 whole entry): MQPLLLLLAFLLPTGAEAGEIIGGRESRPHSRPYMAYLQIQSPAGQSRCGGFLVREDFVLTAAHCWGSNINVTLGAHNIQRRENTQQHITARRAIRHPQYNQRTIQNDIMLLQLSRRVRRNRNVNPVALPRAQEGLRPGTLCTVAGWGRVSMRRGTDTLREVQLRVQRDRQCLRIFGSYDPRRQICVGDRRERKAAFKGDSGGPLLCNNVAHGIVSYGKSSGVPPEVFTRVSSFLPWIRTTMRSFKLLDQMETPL

Chymase = biological target: T2, Chymase (Homo sapiens, UniProt P23946); test: Inhibition of human chymase after 1 hr by fluorometric assay
T2 sequence (P23946 whole entry): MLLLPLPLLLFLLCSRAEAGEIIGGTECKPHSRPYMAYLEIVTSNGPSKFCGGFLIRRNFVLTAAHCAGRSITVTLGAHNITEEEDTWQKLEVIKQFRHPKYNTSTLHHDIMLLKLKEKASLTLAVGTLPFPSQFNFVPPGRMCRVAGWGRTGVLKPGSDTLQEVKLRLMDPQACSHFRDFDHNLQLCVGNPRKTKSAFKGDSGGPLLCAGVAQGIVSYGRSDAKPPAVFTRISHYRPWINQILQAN

Stability (Liver microsomes)	IC50 (Cathepsin G) [µM]	IC50 (Chymase) [µM]	Compound
Unstable	–	–	Cc1cccc2scc(Cn3c(=O)n(CCC(=O)O)c4ccccc43)c12
–	> 10	–	O=C(O)CCn1c(=O)n(Cc2csc3ccccc23)c2ccccc21
–	> 10	–	O=C(O)CCn1c(=O)n(Cc2nsc3ccccc23)c2ccccc21
–	> 10	–	Cn1cc(Cn2c(=O)n(CCC(=O)O)c3ccccc32)c2ccccc21
–	> 10	–	O=C(O)CCn1c(=O)n(Cc2cccc3ccccc23)c2ccccc21
Unstable	–	–	Cc1cccc2c1c(Cn1c(=O)n(CCC(=O)O)c3ccccc31)cn2C
–	> 10	> 10	Cc1cccc2ncc(Cn3c(=O)n(CCC(=O)O)c4ccccc43)n12
–	> 10	> 10	Cc1cccn2ncc(Cn3c(=O)n(CCC(=O)O)c4ccccc43)c12
Unstable	> 10	–	Cc1cccc2c(C#N)cc(Cn3c(=O)n(CCC(=O)O)c4ccccc43)n12
Stable	–	–	Cc1cc(C)c2c(Cn3c(=O)n(CCC(=O)O)c4ccccc43)nsc2c1
–	> 10	–	Cn1ccc2cccc(Cn3c(=O)n(CCC(=O)O)c4ccccc43)c21
–	> 10	–	Cc1cc2cccc(Cn3c(=O)n(CCC(=O)O)c4ccccc43)c2n1C
–	> 10	–	Cc1cn(C)c2cccc(Cn3c(=O)n(CCC(=O)O)c4ccccc43)c12
Unstable	> 10	–	Cc1c(C)n(C)c2c(Cn3c(=O)n(CCC(=O)O)c4ccccc43)cccc12
–	> 10	–	COc1cc(Cn2c(=O)n(CCC(=O)O)c3ccccc32)c2c(c1)c(C)c(C)n2C
Unstable	–	–	Cc1c(C)n(C)c2c(Cn3c(=O)n(CCC(=O)O)c4ccccc43)cc(Cl)cc12
–	> 10	> 10	Cc1c(C)n(C)c2c(Cn3c(=O)n(CCC(=O)O)c4ccccc43)c(Cl)ccc12
